Assay results published in publication PMC7796460, “Relation of Metal-Binding Property and Selective Toxicity of 8-Hydroxyquinoline Derived Mannich Bases Targeting Multidrug Resistant Cancer Cells” (Cancers, 2021).
Marks after values point to notes of the source that are not given here. Blank lines part the entries; values can stand above or below the compound they belong to.

Columns and labels:
[1] = parameters: method as in PMID 21275772; details: T = 25 °C, I = 0.2 M (KCl), cited from earlier work
[2] = tested on: KB-v1 cells; experiment: MTT viability assay, KB-v1; type: cell-based; details: Homo sapiens, KB-V1, 72 h, MTT 72 h
From the text: (§1) MDCK II canine kidney cells, A431 epidermoid carcinoma cells, the human uterine sarcoma cell lines MES-SA and the doxorubicin selected MES-SA-Dx5 were obtained from ATCC (MDCK II: No. CRL-2936™, A431: No. CRL-1555™, MES-SA: No. CRL-1976™, MES-SA/Dx5: No. CRL-1977™). ABCB1 was expressed in A431 and MES-SA cells using lentiviral transduction. The human cervix carcinoma cell line KB-3-1 and the vinblastine selected KB-v1were kind gifts from Dr. Michael M. Gottesman, National Institutes of Health. The phenotype of the resistant cells was verified using cytotoxicity assays. MDCK-B1 and MDCK-MM were established by the Sleeping Beauty transposon-based gene delivery system. OVCAR-8 and NCI-ADRres cells (obtained from the Division of Cancer Treatment and Diagnosis (DCTD) Tumor Repository (National Cancer Institute, Frederick, MD, USA)) were cultivated in RPMI-1640 (Sigma Aldrich, Budapest, Hungary), and other cell lines were cultivated in Dulbecco’s Modified Eagle Medium (DMEM, Sigma Aldrich, Budapest, Hungary), supplemented with 10% fetal bovine serum, 5 mM glutamine, and 50 unit/mL penicillin and streptomycin (Life Technologies, Carlsbad, CA, USA). All cell lines were cultivated at 37 °C, 5% CO2.
(§2) MTT viability assays were performed as described earlier with minor modifications. Briefly, cells were seeded into 96-well tissue culture plates (Sarstedt, Newton, NC, USA/Orange, Braine-l’Alleud, Belgium) at a density of 5000 cells/well and allowed to attach overnight. Test compounds were added to achieve the required final concentration in a final volume of 100 µL per well. After an incubation period of 72 h, the supernatant was removed and fresh medium containing the MTT reagent (0.083 mg/mL) was added. Incubation with MTT at 37 °C was terminated after 1 h by removing the supernatant and lysing the cells with 100 µL DMSO per well. Viability of the cells was measured spectrophotometrically based on the absorbance values at 540 nm using either a Perkin Elmer Victor X3 or an EnSpire microplate reader. Data were background corrected by subtraction of the signal obtained from unstained cell lysates and normalized to untreated cells. Curves were fitted by Prism software (GraphPad Software Inc., San Diego, CA, USA) using the sigmoidal dose-response model (comparing variable and fixed slopes). […] Significance was calculated using unpaired t-tests; results are given as *: p ≤ 0.05, **: p ≤ 0.01, ***: p ≤ 0.001, ****: p ≤ 0.0001.

[3] = tested on: A431-B1 cells; experiment: MTT viability assay, A431-B1; type: cell-based; details: for IC50: 72 h, MTT 72 h
From the text: as §1, §2

[4] = tested on: MES-SA/Dx5 cells; experiment: MTT viability assay, MES-SA/Dx5; type: cell-based, human; details: for IC50: Homo sapiens, MES-SA/Dx5, Table S1, calculated as ligand equivalents, read-out: IC50 Dx5; for IC50 / SR: absence of TQ; for Effect of co-administration of CuCl2 on toxicity: MDR MES-SA/Dx5, increasing concentrations of CuCl2, MTT 72 h (Figure 2I-L); for Effect of co-incubation with iron(III) on cytotoxicity: MES-SA/Dx5, increasing concentrations of FeCl3, MTT 72 h (Figure 2A-D); for SR: Table S1, IC50 Pgp negative divided by Pgp positive cells; for SR_TQ: Table S1, presence of 1 µM TQ
From the text: as §1, §2

[5] = tested on: MDCK-B1 cells; experiment: MTT viability assay, MDCK-B1 (wild-type Pgp); type: cell-based, canine; details: for IC50: Canis lupus familiaris, 72 h, MTT 72 h
From the text: as §1, §2

[6] = tested on: OVCAR-8 cells; experiment: MTT viability assay, OVCAR-8; type: cell-based; details: Homo sapiens, OVCAR-8, 72 h, MTT 72 h
From the text: as §1, §2

[7] = tested on: MES-SA/Dx5 cells; experiment: ROS determination with DCFDA, MES-SA/Dx5; type: cell-based, human; details: 2 h
Method: Measurements were performed as described earlier. Briefly, cells were harvested, washed with PBS, and incubated with 10 µM DCFDA in a water bath shaker at 37 °C for 30 min in a density of 3 × 10^6 cells/mL. After washing with PBS, cells were seeded to 96-well plates in PBS in a density of 2 × 10^4 cells/well. Following the measurement of the basal fluorescence, test compounds were added in different concentrations and the fluorescence of the samples was followed at time intervals of 10 min. DCFDA solution in buffer was used as a cell free control to test for interaction of the test compounds with DCFDA. Data were analyzed as fold change of fluorescence compared to basal levels and untreated cells. Significance was calculated using unpaired t-tests; results are given as *: p ≤ 0.05, **: p ≤ 0.01, ***: p ≤ 0.001, ****: p ≤ 0.0001.
Table S3: Characterization of intracellular ROS production with the DCFDA assay for P -gp negative MES-SA and P-gp positive MES-SA/Dx5 cells. Fold changes in fluorescence are shown after a 2 h with the investigated 8 -hydroxyquinoline ligands. Data S-refer to Figure 7 and allow […]
concentration range from 6.25µ M to 50µ M. Fold change of fluorescence obtained in the presence of 5 mM NAC is given in brackets.

[8] = presence of 1 µM Tariquidar (values in brackets)
[9] = IC50 A431 vs. A431-B1, absence of Tariquidar
[10] = IC50 A431 vs. A431-B1, presence of 1 µM Tariquidar (brackets)
[11] = IC50 MES-SA vs. MES-SA/Dx5, absence of Tariquidar
[12] = IC50 MES-SA vs. MES-SA/Dx5, presence of 1 µM Tariquidar (brackets)
[13] = Table 2, value in brackets (Tariquidar as in Table 1)
[14] = Table 2, value outside brackets
[15] = IC50 MDCK vs. MDCK-B1, absence of Tariquidar
[16] = IC50 MDCK vs. MDCK-B1, presence of 1 µM Tariquidar (brackets)
[17] = MES-SA/Dx5, 6.25 µM, presence of 5 mM NAC (brackets)
[18] = MES-SA/Dx5, 12.5 µM, presence of 5 mM NAC (brackets)
[19] = MES-SA/Dx5, 25 µM, presence of 5 mM NAC (brackets)
[20] = MES-SA/Dx5, 50 µM, presence of 5 mM NAC (brackets)

Compound: Oc1cccc2cccnc12 [Compound Q-1, 8-Hydroxyquinoline]
pKa (NquinoliniumH+) [1]: 4.99 ^a | pKa (OH) [1]: 9.51 ^a | IC50 ([2]; absence of Tariquidar): 8.71 ± 4.43 µM | IC50 [2, 8]: 10.8 µM | IC50 ([3]; absence of Tariquidar): 8.21 ± 4.04 µM | IC50 [3, 8]: 7.06 µM | SR A431-B1 [3, 9]: 0.31 | SR A431-B1 [3, 10]: 0.41 | IC50 [4]: 2.46 ± 0.69 µM | SR MES-SA/Dx5 [4, 11]: 1.70 | SR MES-SA/Dx5 [4, 12]: 1.73 | Effect of co-administration of CuCl2 on toxicity [4]: increased the toxicity | Effect of co-incubation with iron(III) on cytotoxicity [4]: did not influence the cytotoxicity | SR MES-SA/Dx5 (Table 2) [4, 13]: 1.73 | SR MES-SA/Dx5 (Table 2) [4, 14]: 1.70 | SR [4]: 1.70 | SR_TQ [4]: 1.73 | IC50 ([5]; absence of Tariquidar): 4.58 ± 1.75 µM | IC50 [5, 8]: 15.2 µM | SR MDCK-B1 [5, 15]: 0.71 | SR MDCK-B1 [5, 16]: 0.20 | IC50 ([6]; absence of Tariquidar): 3.45 ± 0.13 µM | IC50 [6, 8]: 3.43 µM | Fold change in fluorescence (DCFDA) ([7]; MES-SA/Dx5, 6.25 µM): 1.006± 0.15 | Fold change in fluorescence (DCFDA) [7, 17]: 1.085± 0.11 | Fold change in fluorescence (DCFDA) ([7]; MES-SA/Dx5, 12.5 µM): 0.720± 0.21 | Fold change in fluorescence (DCFDA) [7, 18]: 1.071± 0.12 | Fold change in fluorescence (DCFDA) ([7]; MES-SA/Dx5, 25 µM): 0.713± 0.21 | Fold change in fluorescence (DCFDA) [7, 19]: 0.971± 0.17 | Fold change in fluorescence (DCFDA) ([7]; MES-SA/Dx5, 50 µM): 0.725± 0.18 | Fold change in fluorescence (DCFDA) [7, 20]: 0.918± 0.10

IC50 ([2]; absence of Tariquidar): 6.42 ± 2.19 µM | IC50 [2, 8]: 11.3 µM | IC50 ([3]; absence of Tariquidar): 4.05 ± 1.86 µM | IC50 [3, 8]: 7.64 µM | IC50 ([6]; absence of Tariquidar): 3.16 ± 0.52 µM | IC50 [6, 8]: 3.28 µM
Compound: Oc1c(CN2CCOCC2)ccc2cccnc12 [Compound Q-2, 7-(morpho-lino-methyl)quinolin-8-ol]
pKa (NquinoliniumH+) [1]: 2.59 ^a | pKa (OH) [1]: 10.37 ^a | pKa (additional) ([1]; group named in the cell): 6.25 ^a (NmorpholiniumH^+) | SR A431-B1 [3, 9]: 0.82 | SR A431-B1 [3, 10]: 0.42 | IC50 [4]: 3.27 ± 0.39 µM | SR MES-SA/Dx5 [4, 11]: 2.13 | SR MES-SA/Dx5 [4, 12]: 0.85 | Effect of co-administration of CuCl2 on toxicity [4]: increased the toxicity | Effect of co-incubation with iron(III) on cytotoxicity [4]: selectively protected MES-SA/Dx5 cells | SR MES-SA/Dx5 (Table 2) [4, 13]: 0.85 | SR MES-SA/Dx5 (Table 2) [4, 14]: 2.13 | SR [4]: 2.13 | SR_TQ [4]: 0.85 | IC50 ([5]; absence of Tariquidar): 12 ± 7.84 µM | IC50 [5, 8]: 12.1 µM | SR MDCK-B1 [5, 15]: 0.76 | SR MDCK-B1 [5, 16]: 0.92 | Fold change in fluorescence (DCFDA) ([7]; MES-SA/Dx5, 6.25 µM): 1.863± 0.81 | Fold change in fluorescence (DCFDA) [7, 17]: 1.024± 0.19 | Fold change in fluorescence (DCFDA) ([7]; MES-SA/Dx5, 12.5 µM): 2.324± 1.25 | Fold change in fluorescence (DCFDA) [7, 18]: 1.137± 0.32 | Fold change in fluorescence (DCFDA) ([7]; MES-SA/Dx5, 25 µM): 3.348± 2.35 | Fold change in fluorescence (DCFDA) [7, 19]: 1.074± 0.28 | Fold change in fluorescence (DCFDA) ([7]; MES-SA/Dx5, 50 µM): 4.103± 2.67 | Fold change in fluorescence (DCFDA) [7, 20]: 1.154± 0.22
